These results are taken from US11149021B2, “N-(azaaryl)cyclolactam-1-carboxamide derivative, preparation method therefor, and use thereof” (Abbisko Therapeutics Co., Ltd., priority 2017, dated 2021).

Where two headings read alike, the source gives them in different places.

The target in one assay is T1, CSF-1R (Homo sapiens, UniProt P07333).
T1 construct: 3.95 nM of CSF-1R, 500 μM of ATP
Put plainly: CSF-1R in vitro biochemical kinase study (ADP-Glo assay).

Assay [1] has as its system M-NFS-60 mouse myeloid leukemia lymphocytes. In words: CSF-1R cell proliferation study (Cell Titer Glo).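 Note: M-CSF-driven proliferation, viable cells quantified as ATP by luminescence, compounds tested as 3-fold serial dilutions, values from four-parameter curve fits.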 The format is cell-based. The following applies: Lymphocyte, 72 h.
Procedure: Functional effects of compounds on cell proliferation were evaluated by using Cell Titer Glo (CTG) study in the present invention. […] Since ATP is an index for viable cell metabolism, CTG (Promega, #G7573) reagent is a homogeneous detection method for detecting the number of viable cells in the culture by quantifying ATP. Therefore, compound-mediated inhibition for cell proliferation/survival was evaluated by quantifying ATP content in cells, and the specific experimental process was as follows:
3. 10 μL of culture medium containing M-CSF with 10-fold of the final concentration was then added to each well;
4. dosage effect was evaluated by testing the 3-fold serial dilutions of the compound;
5. after the cells were incubated for 3 days at 37° C. and 5% CO2, the inhibition on cell survival was quantified after 50 μL of CTG was added and the luminescence assay was performed;
6. the compound concentration leading to half maximal inhibitory (IC50) and the compound concentration leading to absolute half maximal inhibitory (Absolute IC50) was measured by a plate reader (M1000, Tecan) and a four-parameter curve fit in Graphpad Prism 7.
Setting [2] is: read-out: Cytological experiment CS1-1R Absolute IC50 (nM).
Where [3] appears, read: read-out: Cytological experiment CSF-1R IC50 (nM).
[4] abbreviates: M-NFS-60 cells, M-CSF, 3 days, CTG, * = average of multiple tests, read-out: Cytological experiment CSF-1R IC50.
The mark [5] stands for this setting: M-NFS-60 cells, M-CSF, 3 days, CTG, absolute half maximal inhibition, * = average of multiple tests, read-out: Cytological experiment CS1-1R Absolute IC50.

T1 sequence (P07333 20-972): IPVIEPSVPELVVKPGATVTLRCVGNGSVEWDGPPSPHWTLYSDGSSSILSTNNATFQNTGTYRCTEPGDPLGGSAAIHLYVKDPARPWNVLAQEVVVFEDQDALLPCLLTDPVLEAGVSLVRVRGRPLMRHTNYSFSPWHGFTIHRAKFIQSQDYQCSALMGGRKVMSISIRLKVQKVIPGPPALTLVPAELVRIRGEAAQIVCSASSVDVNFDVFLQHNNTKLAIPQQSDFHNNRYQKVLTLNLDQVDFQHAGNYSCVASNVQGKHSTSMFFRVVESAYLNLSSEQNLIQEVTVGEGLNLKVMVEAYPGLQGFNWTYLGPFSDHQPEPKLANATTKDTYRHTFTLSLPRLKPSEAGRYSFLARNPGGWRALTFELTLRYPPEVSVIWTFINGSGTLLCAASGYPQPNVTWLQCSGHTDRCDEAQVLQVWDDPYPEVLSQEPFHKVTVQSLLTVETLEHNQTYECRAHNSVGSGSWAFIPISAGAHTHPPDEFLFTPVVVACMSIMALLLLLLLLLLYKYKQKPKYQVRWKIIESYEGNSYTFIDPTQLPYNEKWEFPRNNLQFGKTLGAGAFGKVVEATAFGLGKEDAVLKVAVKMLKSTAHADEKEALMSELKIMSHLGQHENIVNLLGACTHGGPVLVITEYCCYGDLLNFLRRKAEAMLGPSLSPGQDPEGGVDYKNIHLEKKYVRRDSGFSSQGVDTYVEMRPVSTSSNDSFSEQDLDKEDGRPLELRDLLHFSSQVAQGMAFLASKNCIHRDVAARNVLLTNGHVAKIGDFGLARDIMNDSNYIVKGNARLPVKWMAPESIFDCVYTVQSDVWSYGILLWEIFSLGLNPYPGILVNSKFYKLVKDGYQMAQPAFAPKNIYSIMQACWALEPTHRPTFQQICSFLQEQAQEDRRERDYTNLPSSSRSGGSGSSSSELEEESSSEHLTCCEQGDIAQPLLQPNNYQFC

In the case of `[2H]C([2H])([2H])n1cc(-c2cc(Oc3ccc(NC(=O)N4CCCC(C)(C)C4=O)nc3C)ccn2)cn1` [Example 39, 3,3-dimethyl-N-(6-methyl-5-((2-(1-(methyl-d3)-1H-pyrazol-4-yl)pyridin-4-yl)oxy)pyridin-2-yl)-2-oxopiperidine-1-carboxamide], the values for the IC50 (against CSF-1R; in assay [1] (setting [2]); in assay [1] (setting [3])) were 20.2 nM, 35 nM and 48.3 nM, respectively.
As to `CNC(=O)c1cc(Oc2ccc(NC(=O)N3CCC(C)(C)C3=O)nc2C)ccn1` [Example 27, 4-((6-(3,3-dimethyl-2-oxopyrrolidine-1-carboxamido)-2-methylpyridin-3-yl)oxy)-N-methylpicolinamide], the half-inhibitory concentration (IC50) at CSF-1R was found to be 135 nM; in assay [1] (setting [2]), 441 nM; in assay [1] (setting [3]) it was 487 nM.
The like results for `COCCC1(C)CCN(C(=O)Nc2ccc(Oc3ccnc(-c4cnn(C)c4)c3)c(C)n2)C1=O` (stereo not shown) [Example 37, 3-(2-methoxyethyl)-3-methyl-N-(6-methyl-5-((2-(1-methyl-1H-pyrazol-4-yl)pyridine-4-yl)oxy)pyridin-2-yl)-2-oxopyrrolidine-1-carboxamide] were, in that order, 207 nM, 140 nM and 141 nM.
The like results for `CNc1cc(Oc2ccc(NC(=O)N3CCC(C)(C)C3=O)nc2C)ccn1` [Example 42, 3,3-dimethyl-N-(6-methyl-5-((2-(methylamino)pyridin-4-yl)oxy)pyridin-2-yl)-2-oxopyrrolidine-1-carboxamide] were, in that order, 2280 nM, over 2000 nM and over 2000 nM.
The like results for `Cc1nc(NC(=O)N2CCC(C)(C)C2=O)ccc1Oc1ccnc(NC(=O)C2CCN(C)CC2)c1` [Example 25, N-(4-((6-(3,3-dimethyl-2-oxopyrrolidine-1-carboxamido)-2-methylpyridin-3-yl)oxy)pyridin-2-yl)-1-methylpiperidine-4-carboxamide] were, in that order, 1120 nM, 1990 nM and 1920 nM.
On to `CC(=O)Nc1cc(Oc2ccc(NC(=O)N3CCC(C)(C)C3=O)nc2C)ccn1` [Example 23, N-(5-((2-acetylamidopyridin-4-yl)oxy)-6-methylpyridin-2-yl)-3,3-dimethyl-2-oxopyrrolidine-1-carboxamide], for which the IC50 was determined as 83 nM against CSF-1R, 384 nM in assay [1] (setting [2]) and 620 nM in assay [1] (setting [3]).
Regarding `Cc1nc(NC(=O)N2CCC(C)(C)C2=O)ccc1Oc1ccnc(-c2cnn(C3COC3)c2)c1` [Example 18, 3,3-dimethyl-N-(6-methyl-5-((2-(1-(oxetan-3-yl)-1H-pyrazol-4-yl)pyridin-4-yl)oxy)pyridin-2-yl)-2-oxopyrrolidine-1-carboxamide], the IC50 in assay [1] (setting [4]) worked out at 125 nM; in assay [1] (setting [5]), 114 nM.
At CSF-1R, `Cc1nc(NC(=O)N2CCCC2=O)ccc1Oc1ccnc(-c2cnn(C)c2)c1` [Example 38, N-(6-methyl-5-((2-(1-methyl-1H-pyrazol-4-yl)pyridin-4-yl)oxy)pyridin-2-yl)-2-oxopyrrolidine-1-carboxamide] gave an IC50 of 1470 nM.
`Cc1nc(NC(=O)N2CCC(C)(OCc3ccccc3)C2=O)ccc1Oc1ccnc(-c2cnn(C)c2)c1` (stereo not shown) [Example 36, 3-(benzyloxy)-3-methyl-N-(6-methyl-5-((2-(1-methyl-1H-pyrazol-4-yl)pyridin-4-yl)oxy)pyridin-2-yl)-2-oxopyrrolidine-1-carboxamide]: the results for the IC50 in assay [1] (setting [4]) and in assay [1] (setting [5]) were 500 nM and 727 nM, respectively.
With `Cc1nc(NC(=O)N2CCC(C)(C)C2=O)ccc1Oc1ccnc(-c2cn(C)cn2)c1` [Example 19, 3,3-dimethyl-N-(6-methyl-5-((2-(1-methyl-1H-imidazol-4-yl)pyridin-4-yl)oxy)pyridin-2-yl)-2-oxopyrrolidine-1-carboxamide], the IC50 against CSF-1R was found to be 176 nM; in assay [1] (setting [2]), 647 nM; in assay [1] (setting [3]) it was 644 nM.
The like results for `Cc1nc(NC(=O)N2CCC(C)(C)C2=O)ccc1Oc1ccnc(-c2cnn(C)c2)n1` [Example 22, 3,3-dimethyl-N-(6-methyl-5-((2-(1-methyl-1H-pyrazol-4-yl)pyrimidin-4-yl)oxy)pyridin-2-yl)-2-oxopyrrolidine-1-carboxamide] were, in that order, 249 nM, 500 nM and 500 nM.
The like results for `Cc1nc(NC(=O)N2CCC(C)C2=O)ccc1Oc1ccnc(-c2cnn(C)c2)c1` (stereo not shown) [Example 32, 3-methyl-N-(6-methyl-5-((2-(1-methyl-1H-pyrazol-4-yl)pyridin-4-yl)oxy)pyridin-2-yl)-2-oxopyrrolidine-1-carboxamide] were, in that order, 324 nM, 782 nM and 667 nM.
As for `Cc1nc(NC(=O)N2CCC(C)(C)C2=O)ccc1Oc1ccnc(-c2cnn(CC(C)(C)O)c2)c1` [Example 16, N-(5-((2-(1-(2-hydroxy-2-methylpropyl)-1H-pyrazol-4-yl)pyridin-4-yl)oxy)-6-methylpyridin-2-yl)-3,3-dimethyl-2-oxopyrrolidine-1-carboxamide], half-maximal inhibition against CSF-1R (IC50) required 230 nM.
On to `Cc1nc(NC(=O)N2CCC(C)(C)C2=O)ccc1Oc1ccnc(-c2cnn([C@H]3CCOC3)c2)c1` [Example 12, (S)-3,3-dimethyl-N-(6-methyl-5-((2-(1-(tetrahydrofuran-3-yl)-1H-pyrazol-4-yl)pyridin-4-yl)oxy)pyridin-2-yl)-2-oxopyrrolidine-1-carboxamide], for which the IC50 on CSF-1R was 71.7 nM; in assay [1] (setting [2]), 134 nM; in assay [1] (setting [3]), 158 nM.
For `Cc1nc(NC(=O)N2CCC(C)(C)C2=O)ccc1Oc1ccnc(-c2cnn(CCN3CCOCC3)c2)c1` [Example 8, 3,3-dimethyl-N-(6-methyl-5-((2-(1-(2-morpholinoethyl)-1H-pyrazol-4-yl)pyridin-4-yl)oxy)pyridin-2-yl)-2-oxopyrrolidine-1-carboxamide], the IC50 on CSF-1R was 57.9 nM; in assay [1] (setting [2]), 110 nM; in assay [1] (setting [3]), 148 nM.
`Cc1nc(NC(=O)N2CCC(C)(C)C2=O)ccc1Oc1ccnc(-c2cnn(C3CCN(C)C3)c2)c1` (stereo not shown) [Example 17]: the IC50 at CSF-1R was found to be 101 nM.
`Cc1ncc(-c2cc(Oc3ccc(NC(=O)N4CCC(C)(C)C4=O)nc3C)ccn2)s1` [Example 5, 3,3-dimethyl-N-(6-methyl-5-((2-(2-methylthiazol-5-yl)pyridin-4-yl)oxy)pyridin-2-yl)-2-oxopyrrolidine-1-carboxamide]: the IC50 against CSF-1R was found to be 54.7 nM; in assay [1] (setting [2]) it was 334 nM; in assay [1] (setting [3]), 454 nM.
The like results for `CCCn1cc(-c2cc(Oc3ccc(NC(=O)N4CCC(C)(C)C4=O)nc3C)ccn2)cn1` [Example 14, 3,3-dimethyl-N-(6-methyl-5-((2-(1-propyl-1H-pyrazol-4-yl)pyridin-4-yl)oxy)pyridin-2-yl)-2-oxopyrrolidine-1-carboxamide] were, in that order, 46.4 nM, 115 nM and 118 nM.
The like results for `CCCC1(CCC)CCN(C(=O)Nc2ccc(Oc3ccnc(-c4cnn(C)c4)c3)c(C)n2)C1=O` [Example 30, N-(6-methyl-5-((2-(1-methyl-1H-pyrazol-4-yl)pyridin-4-yl)oxy)pyridin-2-yl)-2-oxo-3,3-dipropylpyrrolidine-1-carboxamide] were, in that order, 98.3 nM, 1160 nM and 1380 nM.
